Reference: patent US20180303809A1, “TREATMENT OF BURN PAIN BY TRPV1 MODULATORS” (Purdue Pharma L.P., priority 2013, published 2018)
“And” between values parts separate entries of the source, which are not always exact repeats. Equal entries are not always repeated.

Assays:
Format in all cases: in vivo, rat
male Sprague-Dawley rats [1] = experiment: Paw pressure assay, mechanical hyperalgesia (PWT) in thermal burn pain model; details: rat burn injury 55° C. 24 s
Procedure: (§1) Test Animals: Each experiment used male Sprague-Dawley rats weighing between 190-260 g at the time of thermal burn injury. The rats were housed two per cage, and were allowed to acclimate to their environment for at least six days before testing began. The rats had free access to food and water at all times, except during testing and prior to oral (PO) administration of a test compound, when food was removed about 16 hours before dosing. The rats were divided into treatment groups, and one of the following compounds was administered to each group at the dose and by the route of administration indicated in Tables 5.2A to 5.2C, 5.3A and 5.3B, and 5.4A and 5.4B: ketorolac (Sigma-Aldrich, St. Louis, Mo.), AMG 517 (selective TRPV1 antagonist described in Em. Doherty et al., “Novel vanilloid receptor-1 antagonists:2. Structure-activity relationships of 4-oxopyrimidines leading to the selection of a clinical candidate,” J Med Chem 50:3515-3527 (2007).) (Purdue Pharma L. P., Cranbury, N.J.), indomethacin (Alexis Biochemicals, Farmingdale, N.Y.), gabapentin (Bosche Scientific, New Brunswick, N.J.), or (S)-3-chloro-5-(1,2-dihydroxyethyl)-N-(5-(trifluoromethyl)pyridin-2-yl)-5′,6′-dihydro-[2,4′-bipyridine]-1′(2′H)-carboxamide (Compound 1). The control groups were administered the vehicle for the compound of formula (I). The volume of administration for PO treatment was 5 ml/kg, and was the same for all treatment groups. Volume of administration for intraperitoneal (i.p.) drug administration was 2 ml/kg.
(§2) To assess the actions of a compound of formula (I) for the treatment or prevention of burn pain, a model of thermal burn pain was used. A thermal burn injury was induced under isofluorane/O2 inhalation anesthesia. To assess mechanical hyperalgesia and weight bearing, a thermal injury was produced by immersing the left hind paw into water maintained at 55° C. for 24 seconds. The left hind paw of non-injured control animals was immersed in 22° C. water for 24 seconds. To assess thermal hyperalgesia, a thermal injury was produced by immersing the left hindpaw into water maintained at 50° C. for 48 seconds; the left hind-paw of non-injured control animals was immersed in 22° C. water for 48 seconds. The animals were assessed for response to noxious mechanical stimuli by determining PWT for mechanical hyperalgesia, weight bearing difference between the injured or non-injured side, or response to noxious thermal stimuli by determining PWL for thermal hyperalgesia, all as described below, prior to drug administration (baseline), then again at 1, 3 and 5 hours after induction of burn injury.
The paw pressure assay was used to assess mechanical hyperalgesia. For this assay, hind paw withdrawal thresholds (PWT) to a noxious mechanical stimulus were determined using an analgesimeter (Model 7200, commercially available from Ugo Basile of Italy) as described in C. Stein, “Unilateral Inflammation of the Hindpaw in Rats as a Model of Prolonged Noxious Stimulation: Alterations in Behavior and Nociceptive Thresholds,” Pharmacol. Biochem. and Behavior 31:451-455 (1988). The rat's paw was placed on a small platform, and weight was applied in a graded manner up to a maximum of 250 grams. The endpoint was taken as the weight at which the paw was completely withdrawn. PWT was determined once for each rat at each time point, wherein the affected (ipsilateral; same side as the injury) rear paw was tested. […] All drug treatment groups were compared to the vehicle control group (i.e. injured, administered only the vehicle).

male Sprague-Dawley rats [2] = experiment: Plantar test, thermal hyperalgesia (PWL) in thermal burn pain model; details: rat burn injury 50° C. 48 s
Procedure: as §1, §2
The plantar test was used to assess thermal hyperalgesia. For this test, hind paw withdrawal latencies (PWL) to a noxious thermal stimulus were determined using a plantar test apparatus (commercially available from Ugo Basile of Italy) following the technique described by K. Hargreaves et al., “A New and Sensitive Method for Measuring Thermal Nociception in Cutaneous Hyperalgesia,” Pain 32(1):77-88 (1988). The maximum exposure time was set at 32 seconds to avoid tissue damage and any directed paw withdrawal from the heat source is taken as the end point. Three latencies were determined at each time point and averaged.

male Sprague-Dawley rats [3] = experiment: Hind limb weight bearing (incapacitance meter, % WL) in thermal burn pain model; details: rat burn injury 55° C. 24 s
Procedure: as §1, §2
A commercially available incapacitance meter was used to determine the weight distribution on the two hind paws of the animal (Linton Incapacitance Tester (Linton Instrumentation, Norfolk, UK)). The weight bearing difference (WBD) between the injured and non-injured hindpaw was measured. The animal was placed in the testing chamber that allows the animal to stand normally, distributing its body weight on the hind limbs for the test. Each hind paw was positioned on a separate pressure sensitive pad, which independently measures the pressure applied by each limb. The device continuously collects data after either a force threshold has been exceeded, or the investigator depresses the start pad. Rats were allowed to acclimate when placed on the apparatus, and when they were stationary, the force exerted was then continuously monitored for 3 s. The endpoint was the amount of pressure applied to each limb over time. Three readings were taken for each rat at each time point, and the average used for data analysis. WBD was expressed as “% WL”, i.e. the percentage of weight borne on the burn-injured left hind paw, using the following formula: […]
where WLP is the weight on the left hind paw and WRP is the weight on the right (untreated) hind paw. The 50% value of % WL corresponds to an equal weight distribution across both hind paws. […]

[4] = 10 mg/kg PO, 1 h after administration
[5] = 10 mg/kg PO, 3 h after administration
[6] = 10 mg/kg PO, 5 h after administration
[7] = 10 mg/kg PO, baseline (prior to drug administration)
[8] = 30 mg/kg PO, 1 h after administration
[9] = 30 mg/kg PO, 3 h after administration
[10] = 30 mg/kg PO, 5 h after administration
[11] = 30 mg/kg PO, baseline (prior to drug administration)

Question: What does the source list for `O=C(c1ccccc1)c1ccc2n1CCC2C(=O)O` (stereo not shown) [Ketorolac, ketorolac]?
Answer: % Decrease from Baseline (mean ± S.E.M.) of Paw Withdrawal Threshold (male Sprague-Dawley rats [1]; [4]): 66 ± 2.2%; Paw Withdrawal Threshold (g) (mean ± S.E.M.) (male Sprague-Dawley rats [1]; [4]): 84 ± 6.1 g; % Decrease from Baseline (mean ± S.E.M.) of Paw Withdrawal Threshold (male Sprague-Dawley rats [1]; [5]): 60 ± 3.8%; Paw Withdrawal Threshold (g) (mean ± S.E.M.) (male Sprague-Dawley rats [1]; [5]): 97 ± 7.5 g; % Decrease from Baseline (mean ± S.E.M.) of Paw Withdrawal Threshold (male Sprague-Dawley rats [1]; [6]): 63 ± 34%; Paw Withdrawal Threshold (g) (mean ± S.E.M.) (male Sprague-Dawley rats [1]; [6]): 91 ± 7.1 g; Paw Withdrawal Threshold (g) (mean ± S.E.M.) (male Sprague-Dawley rats [1]; [7]): 246 ± 4.5 g; % Change from Baseline (mean ± S.E.M.) of Paw Withdrawal Latency (male Sprague-Dawley rats [2]; [4]): −22.3 ± 6.30%; Paw Withdrawal Latency (sec) (mean ± S.E.M.) (male Sprague-Dawley rats [2]; [4]): 9.2 ± 0.96 s; % Change from Baseline (mean ± S.E.M.) of Paw Withdrawal Latency (male Sprague-Dawley rats [2]; [5]): −6.7 ± 5.55%; Paw Withdrawal Latency (sec) (mean ± S.E.M.) (male Sprague-Dawley rats [2]; [5]): 11.9 ± 1.27 s; % Change from Baseline (mean ± S.E.M.) of Paw Withdrawal Latency (male Sprague-Dawley rats [2]; [6]): −10.2 ± 3.05%; Paw Withdrawal Latency (sec) (mean ± S.E.M.) (male Sprague-Dawley rats [2]; [6]): 11.4 ± 0.54 s; Paw Withdrawal Latency (sec) (mean ± S.E.M.) (male Sprague-Dawley rats [2]; [7]): 13.2 ± 0.72 s; % Change from Baseline (mean ± S.E.M.) of Paw Withdrawal Latency (male Sprague-Dawley rats [2]; [8]): −47.6 ± 19.35%; Paw Withdrawal Latency (sec) (mean ± S.E.M.) (male Sprague-Dawley rats [2]; [8]): 8.5 ± 0.89 s; % Change from Baseline (mean ± S.E.M.) of Paw Withdrawal Latency (male Sprague-Dawley rats [2]; [9]): −24.0 ± 19.85%; Paw Withdrawal Latency (sec) (mean ± S.E.M.) (male Sprague-Dawley rats [2]; [9]): 12.6 ± 1.33 s; % Change from Baseline (mean ± S.E.M.) of Paw Withdrawal Latency (male Sprague-Dawley rats [2]; [10]): −10.2 ± 12.40%; Paw Withdrawal Latency (sec) (mean ± S.E.M.) (male Sprague-Dawley rats [2]; [10]): 14.3 ± 0.80 s; Paw Withdrawal Latency (sec) (mean ± S.E.M.) (male Sprague-Dawley rats [2]; [11]): 14.7 ± 1.29 s; % WL (mean ± S.E.M.), percentage of weight borne on the burn-injured left hind paw (male Sprague-Dawley rats [3]; [4]): 50.0 ± 2.20 %; % WL (mean ± S.E.M.), percentage of weight borne on the burn-injured left hind paw (male Sprague-Dawley rats [3]; [5]): 42.6 ± 1.91%; % WL (mean ± S.E.M.), percentage of weight borne on the burn-injured left hind paw (male Sprague-Dawley rats [3]; [6]): 40.1 ± 2.72%; % WL (mean ± S.E.M.), percentage of weight borne on the burn-injured left hind paw (male Sprague-Dawley rats [3]; [7]): 49.8 ± 0.31%

Question: With `COc1ccc2c(c1)c(CC(=O)O)c(C)n2C(=O)c1ccc(Cl)cc1` [Indomethacin, indomethacin] as the compound, how does the “% Decrease from Baseline (mean ± S.E.M.) of Paw Withdrawal Threshold” value (“% Decrease from Baseline” below) (male Sprague-Dawley rats [1]; [8]) read?
Answer: 51 ± 2.6 %

Question: And the “% Decrease from Baseline” value (male Sprague-Dawley rats [1]; [9])?
Answer: 45 ± 5.8 %

Question: And the “% Decrease from Baseline” value (male Sprague-Dawley rats [1]; [10])?
Answer: 58 ± 3.6%

Question: What about the “Paw Withdrawal Threshold (g) (mean ± S.E.M.)” value (male Sprague-Dawley rats [1]; [10]) of the same compound?
Answer: 103 ± 10.2 g

Question: And the “Paw Withdrawal Threshold (g) (mean ± S.E.M.)” value (male Sprague-Dawley rats [1]; [11])?
Answer: 240 ± 7.5 g

Question: What about the “% Change from Baseline (mean ± S.E.M.) of Paw Withdrawal Latency” value (“% Change from Baseline” below) (male Sprague-Dawley rats [2]; [8]) of the same compound?
Answer: −41.5 ± 10.71%

Question: What about the “Paw Withdrawal Latency (sec) (mean ± S.E.M.)” value (from here on “Paw Withdrawal Latency (sec)”) (male Sprague-Dawley rats [2]; [8]) of the same compound?
Answer: 8.3 ± 0.91 s

Question: And the “% Change from Baseline” value (male Sprague-Dawley rats [2]; [9])?
Answer: −26.1 ± 13.18%

Question: What about the “Paw Withdrawal Latency (sec)” value (male Sprague-Dawley rats [2]; [9]) of the same compound?
Answer: 11.2 ± 0.87 s

Question: And the “% Change from Baseline” value (male Sprague-Dawley rats [2]; [10])?
Answer: −25.5 ± 13.63%

Question: And the “Paw Withdrawal Latency (sec)” value (male Sprague-Dawley rats [2]; [10])?
Answer: 11.4 ± 0.51 s

Question: And the “Paw Withdrawal Latency (sec)” value (male Sprague-Dawley rats [2]; [11])?
Answer: 14.3 ± 1.26 s

Question: And the “% WL (mean ± S.E.M.), percentage of weight borne on the burn-injured left hind paw” value (“% WL (mean ± S.E.M.), percentage” below) (male Sprague-Dawley rats [3]; 30 mg/kg PO, 3 h after administration, 30 mg/kg)?
Answer: 42.6 ± 2.14% and 46.8 ± 2.17%

Question: And the “% WL (mean ± S.E.M.), percentage” value (male Sprague-Dawley rats [3]; 30 mg/kg PO, 5 h after administration, 30 mg/kg)?
Answer: 43.7 ± 2.38% and 48.2 ± 2.54%

Question: What about the “% WL (mean ± S.E.M.), percentage” value (male Sprague-Dawley rats [3]; 30 mg/kg PO, baseline (prior to drug administration), 30 mg/kg) of the same compound?
Answer: 49.1 ± 0.53% and 50.4 ± 0.54%
